Experimental data published in patent US20170000749A1, “Methods for Treating Cognitive Disorders Using Inhibitors of Histone Deacetylase” (Forum Pharmaceuticals, Inc., priority 2008, published 2017).
Read-outs that look alike come from different tables or passages of the source.

Assays:
[1] = molecular target: one or more of HDAC-1, HDAC-2, HDAC-3, HDAC-4, HDAC-5, HDAC-6, HDAC-7, HDAC-8, HDAC-9, HDAC-10 and HDAC-11; experiment: Inhibition of Histone Deacetylase Enzymatic Activity (Boc-Lys(Ac)-AMC substrate, Fluor-de-Lys developer); format: biochemical; conditions: read-out: HDAC Inhibition (IC50 μM) HDAC Enzyme
Procedure: The following protocol is used to assay the compounds of the disclosure.
The mixture is pre-incubated for 5 minutes at room temperature. The reaction is started by bringing the temperature to 37° C. and adding 16 μl substrate. Total reaction volume is 50 μl.
In the Tables 8, 9 and 10, A≦0.05 μM; 0.05 μM<B≦0.1 μM; 0.1 μM<C≦1 μM; and 1 μM<D≦10 μM.

[2] = tested on: HDAC activity in primary mouse cortical cultures; experiment: Whole-Cell Histone Deacetylase (HDAC) Inhibition Assay in Primary Mouse Cortical Cultures; format: cell-based
Summary of the method: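 Primary neocortical neurons from E17 Balb/C mouse embryos were plated at 50000 cells/well and treated at DIV9 with ten-point DMSO dilutions for 16-18 h at 37° C, in triplicate. BOC-Lys(Ac)-AMC substrate was then added for 1 h. Fluor de Lys developer containing 1 uM TSA produced a fluorophore, which was read.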

[3] = whole-cell (WC), mouse cortical neurons, Table 8, read-out: HDAC Inhibition (IC50 μM) WC mouse cortical neurons
[4] = whole-cell (WC), mouse cortical neurons, Table 10, read-out: HDAC Inhibition (IC50 μM) WC mouse cortical neurons
[5] = read-out: HDAC Inhibition (IC50 μM) WC mouse cortical neurons, Table 10

Q: How did the IC50 ([1]; Table 8) turn out when O=C(NO)c1ccc(C2=Nc3ccccc3Oc3ccccc32)cc1 [(Z)-4-(dibenzo[b,f][1,4]oxazepin-11-yl)-N-hydroxybenzamide] was run?
A: The IC50 was under 0.05 µM.

Q: What about the IC50 [2, 3] of the same compound?
A: Its IC50 is under 1 µM.

Q: How did the IC50 ([1]; Table 8) turn out when O=C(NO)c1ccc(C2=Nc3ccccc3Oc3c[n+]([O-])ccc32)cc1 [(Z)-5-(4-(hydroxycarbamoyl)phenyl)benzo[b]pyrido[4,3-f][1,4]oxazepine 2-oxide] was run?
A: The IC50 was 0.1 to 1 µM.

Q: What about the IC50 [2, 3] of the same compound?
A: Its IC50 is 5 to 15 µM.

Q: With O=C(CCCCN1c2ccccc2C=Cc2ccccc21)NO [(Z)-5-(5H-dibenzo[b,f]azepin-5-yl)-N-hydroxypentanamide] as the compound, how does the IC50 ([1]; Table 10) read?
A: Its IC50 is 0.1 to 1 µM.

Q: And the IC50 [2, 4]?
A: The IC50 was 5 to 15 µM.

Q: O=C(CCCCCN1c2ccccc2C=Cc2ccccc21)NO [(Z)-6-(5H-dibenzo[b,f]azepin-5-yl)-N-hydroxyhexanamide] was tested. Which IC50 ([1]; Table 10) did it give?
A: The IC50 was under 0.05 µM.

Q: What about the IC50 [2, 4] of the same compound?
A: The IC50 was 1 to 5 µM.

Q: For O=C(CCCCCC(=O)N1c2ccccc2C=Cc2ccccc21)NO [(Z)-7-(5H-dibenzo[b,f]azepin-5-yl)-N-hydroxy-7-oxoheptanamide], which IC50 ([1]; Table 10) is on record?
A: The IC50 was under 0.05 µM.

Q: What about the IC50 [2, 4] of the same compound?
A: Its IC50 is under 1 µM.

Q: For O=C(CCCCCCN1c2ccccc2C=Cc2ccccc21)NO [(Z)-7-(5H-dibenzo[b,f]azepin-5-yl)-N-hydroxyheptanamide], which IC50 ([1]; Table 10) is on record?
A: Its IC50 is under 0.05 µM.

Q: What about the IC50 [2, 4] of the same compound?
A: Its IC50 is 1 to 5 µM.

Q: Which IC50 ([1]; Table 10) does the source give for O=C(CCCCCCC(=O)N1c2ccccc2C=Cc2ccccc21)NO [(Z)-8-(5H-dibenzo[b,f]azepin-5-yl)-N-hydroxy-8-oxooctanamide] here?
A: Its IC50 is 0.1 to 1 µM.

Q: What about the IC50 [2, 4] of the same compound?
A: The IC50 was 5 to 15 µM.

Q: Which IC50 ([1]; Table 10) does the source give for CN1C(=O)CN=C(c2ccccc2)c2ccc(CCC(=O)NO)cc21 [(Z)-N-hydroxy-3-(1-methyl-2-oxo-5-phenyl-2,3-dihydro-1H-benzo[e][1,4]diazepin-8-yl)propanamide] here?
A: The IC50 was 0.1 to 1 µM.

Q: And the IC50 [2, 5]?
A: The IC50 was 5 to 15 µM.

Q: What does the source list for CN1C(=O)CN=C(c2ccc(C(=O)NO)cc2)c2ccccc21 [(Z)-N-hydroxy-4-(1-methyl-2-oxo-2,3-dihydro-1H-benzo[e][1,4]diazepin-5-yl)benzamide]?
A: IC50 ([1]; Table 10): 0.1 to 1 µM; IC50 [2, 5]: 5 to 15 µM

Q: What does the source list for O=C(NO)c1ccc(C2=Nc3ccc(C(F)(F)F)nc3Oc3ccccc32)cc1 [(Z)-N-hydroxy-4-(2-(trifluoromethyl)benzo[f]pyrido[2,3-b][1,4]oxazepin-6-yl)benzamide]?
A: IC50 ([1]; Table 8): 0.05 to 0.1 µM; IC50 [2, 3]: 5 to 15 µM

Q: What does the source list for COc1cccc2c1Oc1ccc(C(F)(F)F)cc1N=C2c1ccc(C(=O)NO)cc1 [(Z)-N-hydroxy-4-(4-methoxy-8-(trifluoromethyl)dibenzo[b,f][1,4]oxazepin-11-yl)benzamide]?
A: IC50 ([1]; Table 8): 0.1 to 1 µM; IC50 [2, 3]: 5 to 15 µM

Q: For O=C(NO)c1ccc(C2=Nc3ccccc3N(CCN3CCOCC3)c3ncccc32)cc1 [(Z)-N-hydroxy-4-(11-(2-morpholinoethyl)-11H-benzo[b]pyrido[2,3-e][1,4]diazepin-5-yl)benzamide], which IC50 ([1]; Table 8) is on record?
A: The IC50 was 0.05 to 0.1 µM.

Q: What about the IC50 [2, 3] of the same compound?
A: Its IC50 is 1 to 5 µM.

Q: What does the source list for O=C(NO)c1ccc(C2=Nc3ccccc3N(CCCN3CCOCC3)c3ncccc32)cc1 [(Z)-N-hydroxy-4-(11-(3-morpholinopropyl)-11H-benzo[b]pyrido[2,3-e][1,4]diazepin-5-yl)benzamide]?
A: IC50 ([1]; Table 8): 0.1 to 1 µM; IC50 [2, 3]: 1 to 5 µM

Q: For CC(C)N1c2ccccc2N=C(c2ccc(C(=O)NO)cc2)c2cccnc21 [(Z)-N-hydroxy-4-(11-isopropyl-11H-benzo[b]pyrido[2,3-e][1,4]diazepin-5-yl)benzamide], which IC50 ([1]; Table 8) is on record?
A: The IC50 was under 0.05 µM.

Q: And the IC50 [2, 3]?
A: The IC50 was under 1 µM.

Q: What does the source list for O=C(CCCCCN1C(=O)CN=C(c2ccccc2)c2ccccc21)NO [(Z)-N-hydroxy-6-(2-oxo-5-phenyl-2,3-dihydro-1H-benzo[e][1,4]diazepin-1-yl)hexanamide]?
A: IC50 ([1]; Table 10): 0.1 to 1 µM; IC50 [2, 5]: 1 to 5 µM

Q: How did the IC50 ([1]; Table 10) turn out when O=C(CCCCCCCN1C(=O)CN=C(c2ccccc2)c2ccccc21)NO [(Z)-N-hydroxy-8-(2-oxo-5-phenyl-2,3-dihydro-1H-benzo[e][1,4]diazepin-1-yl)octanamide] was run?
A: The IC50 was 0.1 to 1 µM.

Q: What about the IC50 [2, 5] of the same compound?
A: Its IC50 is 1 to 5 µM.

Q: How did the IC50 ([1]; Table 8) turn out when COc1cccc2c1C(c1ccc(C(=O)NO)cc1)=Nc1ccccc1O2 [(Z)—N-hydroxy-4-(1-methoxydibenzo[b,f][1,4]oxazepin-11-yl)benzamide] was run?
A: Its IC50 is 0.1 to 1 µM.

Q: And the IC50 [2, 3]?
A: Its IC50 is over 15 µM.

Q: COc1ccc2c(c1)C(c1ccc(C(=O)NO)cc1)=Nc1ccccc1O2 [(Z)—N-hydroxy-4-(2-methoxydibenzo[b,f][1,4]oxazepin-11-yl)benzamide] was tested. Which IC50 ([1]; Table 8) did it give?
A: The IC50 was 0.1 to 1 µM.

Q: What about the IC50 [2, 3] of the same compound?
A: Its IC50 is 5 to 15 µM.

Q: O=C(NO)c1ccc(C2=Nc3ccccc3Oc3cc(C(F)(F)F)ccc32)cc1 [(Z)—N-hydroxy-4-(3-(trifluoromethyl)dibenzo[b,f][1,4]oxazepin-11-yl)benzamide] was tested. Which IC50 ([1]; Table 8) did it give?
A: The IC50 was 0.05 to 0.1 µM.

Q: And the IC50 [2, 3]?
A: The IC50 was over 15 µM.

Q: How did the IC50 ([1]; Table 8) turn out when COc1ccc2c(c1)Oc1ccccc1N=C2c1ccc(C(=O)NO)cc1 [(Z)—N-hydroxy-4-(3-methoxydibenzo[b,f][1,4]oxazepin-11-yl)benzamide] was run?
A: The IC50 was 0.1 to 1 µM.

Q: And the IC50 [2, 3]?
A: Its IC50 is 1 to 5 µM.

Q: Cc1ccc2c(c1)Oc1ccccc1N=C2c1ccc(C(=O)NO)cc1 [(Z)—N-hydroxy-4-(3-methyldibenzo[b,f][1,4]oxazepin-11-yl)benzamide] was tested. Which IC50 ([1]; Table 8) did it give?
A: The IC50 was under 0.05 µM.

Q: And the IC50 [2, 3]?
A: Its IC50 is 1 to 5 µM.

Q: What does the source list for O=C(NO)c1ccc(C2=Nc3ccccc3Oc3cc(N4CCOCC4)ccc32)cc1 [(Z)—N-hydroxy-4-(3-morpholinodibenzo[b,f][1,4]oxazepin-11-yl)benzamide]?
A: IC50 ([1]; Table 8): 0.1 to 1 µM; IC50 [2, 3]: 5 to 15 µM

Q: Which results are given for COCCOc1cccc2c1Oc1ccccc1N=C2c1ccc(C(=O)NO)cc1 [(Z)—N-hydroxy-4-(4-(2-methoxyethoxy)dibenzo[b,f][1,4]oxazepin-11-yl)benzamide]?
A: IC50 ([1]; Table 8): < 0.05 µM; IC50 [2, 3]: 1 to 5 µM

Q: For O=C(NO)c1ccc(C2=Nc3ccccc3Oc3c(OCCN4CCOCC4)cccc32)cc1 [(Z)—N-hydroxy-4-(4-(2-morpholinoethoxy)dibenzo[b,f][1,4]oxazepin-11-yl)benzamide], which IC50 ([1]; Table 8) is on record?
A: The IC50 was under 0.05 µM.

Q: And the IC50 [2, 3]?
A: Its IC50 is under 1 µM.

Q: With C[S+]([O-])c1cccc2c1Oc1ccccc1N=C2c1ccc(C(=O)NO)cc1 (stereo not shown) [(Z)—N-hydroxy-4-(4-(methylsulfinyl)dibenzo[b,f][1,4]oxazepin-11-yl)benzamide] as the compound, how does the IC50 ([1]; Table 8) read?
A: Its IC50 is 0.05 to 0.1 µM.

Q: What about the IC50 [2, 3] of the same compound?
A: Its IC50 is 1 to 5 µM.

Q: CS(=O)(=O)c1cccc2c1Oc1ccccc1N=C2c1ccc(C(=O)NO)cc1 [(Z)—N-hydroxy-4-(4-(methylsulfonyl)dibenzo[b,f][1,4]oxazepin-11-yl)benzamide] was tested. Which IC50 ([1]; Table 8) did it give?
A: The IC50 was under 0.05 µM.

Q: And the IC50 [2, 3]?
A: The IC50 was 1 to 5 µM.

Q: Which IC50 ([1]; Table 8) does the source give for CSc1cccc2c1Oc1ccccc1N=C2c1ccc(C(=O)NO)cc1 [(Z)—N-hydroxy-4-(4-(methylthio)dibenzo[b,f][1,4]oxazepin-11-yl)benzamide] here?
A: The IC50 was under 0.05 µM.

Q: What about the IC50 [2, 3] of the same compound?
A: Its IC50 is 1 to 5 µM.

Q: With O=C(NO)c1ccc(C2=Nc3ccccc3Oc3c(OC(F)(F)F)cccc32)cc1 [(Z)—N-hydroxy-4-(4-(trifluoromethoxy)dibenzo[b,f][1,4]oxazepin-11-yl)benzamide] as the compound, how does the IC50 ([1]; Table 8) read?
A: The IC50 was 0.1 to 1 µM.

Q: What about the IC50 [2, 3] of the same compound?
A: Its IC50 is over 15 µM.

Q: How did the IC50 ([1]; Table 8) turn out when O=C(NO)c1ccc(C2=Nc3ccccc3Oc3c2cccc3C(F)(F)F)cc1 [(Z)—N-hydroxy-4-(4-(trifluoromethyl)dibenzo[b,f][1,4]oxazepin-11-yl)benzamide] was run?
A: Its IC50 is under 0.05 µM.

Q: And the IC50 [2, 3]?
A: The IC50 was over 15 µM.

Q: For O=C(NO)c1ccc(C2=Nc3ccccc3Oc3c(O)cccc32)cc1 [(Z)—N-hydroxy-4-(4-hydroxydibenzo[b,f][1,4]oxazepin-11-yl)benzamide], which IC50 ([1]; Table 8) is on record?
A: Its IC50 is 0.05 to 0.1 µM.

Q: And the IC50 [2, 3]?
A: The IC50 was under 1 µM.

Q: COc1cccc2c1Oc1ccccc1N=C2c1ccc(C(=O)NO)cc1 [(Z)—N-hydroxy-4-(4-methoxydibenzo[b,f][1,4]oxazepin-11-yl)benzamide] was tested. Which IC50 ([1]; Table 8) did it give?
A: The IC50 was 0.05 to 0.1 µM.

Q: And the IC50 [2, 3]?
A: The IC50 was 1 to 5 µM.

Q: How did the IC50 ([1]; Table 8) turn out when Cc1cccc2c1Oc1ccccc1N=C2c1ccc(C(=O)NO)cc1 [(Z)—N-hydroxy-4-(4-methyldibenzo[b,f][1,4]oxazepin-11-yl)benzamide] was run?
A: The IC50 was 0.05 to 0.1 µM.

Q: What about the IC50 [2, 3] of the same compound?
A: The IC50 was 1 to 5 µM.
